Assay results published in PubChem BioAssay (NCI).
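A five-concentration, 48-hour dose response in 96-well plates underlies each endpoint, interpolated linearly between surrounding concentrations. TGI: concentration producing complete growth inhibition.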

Experiments:
Assay in all cases: NCI tumour cell line growth inhibition, 48 h
[1] = tested on: COLO 205 colon
[2] = tested on: MDA-MB-231 breast
[3] = tested on: TK-10 renal
[4] = tested on: HT29 colon
[5] = tested on: OVCAR-4 ovarian
[6] = tested on: A549 NSCLC
[7] = tested on: HOP-62 NSCLC
[8] = tested on: OVCAR-5 ovarian
[9] = tested on: K-562 leukemia
[10] = tested on: HS 578T breast
[11] = tested on: SK-MEL-28 melanoma
[12] = tested on: MDA-N
[13] = tested on: SK-MEL-2 melanoma
[14] = tested on: SK-MEL-5 melanoma
[15] = tested on: EKVX NSCLC
[16] = tested on: UACC-62 melanoma
[17] = tested on: SW-620 colon
[18] = tested on: HL-60(TB) leukemia
[19] = tested on: NCI-H23 lung
[20] = tested on: DU-145 prostate
[21] = tested on: MCF7 breast
[22] = tested on: A498 renal
[23] = tested on: RXF 393 renal
[24] = tested on: 786-0 renal
[25] = tested on: KM12 colon
[26] = tested on: HOP-92 NSCLC
[27] = tested on: HCT-15 colon
[28] = tested on: T-47D breast
[29] = tested on: MDA-MB-435
[30] = tested on: SF-539 CNS
[31] = tested on: M14 melanoma
[32] = tested on: HCC-2998 colon
[33] = tested on: SNB-75 CNS
[34] = tested on: ACHN renal
[35] = tested on: OVCAR-3 ovarian
[36] = tested on: SF-295 CNS
[37] = tested on: LOX IMVI melanoma
[38] = tested on: PC-3 prostate
[39] = tested on: SNB-19 CNS
[40] = tested on: CCRF-CEM leukemia
[41] = tested on: HCT-116 colon
[42] = tested on: NCI-H226 lung
[43] = tested on: OVCAR-8 ovarian
[44] = tested on: RPMI-8226 leukemia
[45] = tested on: MOLT-4 leukemia
[46] = tested on: SF-268 CNS
[47] = tested on: MALME-3M melanoma
[48] = tested on: SN12C renal
[49] = tested on: NCI/ADR-RES ovarian
[50] = tested on: SR leukemia
[51] = tested on: NCI-H460 lung
[52] = tested on: SK-OV-3 ovarian
[53] = tested on: UACC-257 melanoma
[54] = tested on: CAKI-1 renal
[55] = tested on: NCI-H522 lung
[56] = tested on: U251 CNS
[57] = tested on: BT-549 breast
[58] = tested on: IGROV1 ovarian
[59] = tested on: UO-31 renal

## O=P(Nc1ccccc1)(Oc1ccccc1)N1CCN(c2ccccc2)CC1 (stereo not drawn)
[1]
  TGI: 34.9 µM
[2]
  TGI: 28.9 µM
[3]
  TGI: 52.2 µM
[4]
  TGI: 29.3 µM
[5]
  TGI: 62.5 µM
[6]
  TGI: 38.5 µM
[7]
  TGI: 32.3 µM
[8]
  TGI: 33.5 µM
[9]
  TGI: > 100 µM
[10]
  TGI: 40.5 µM
[11]
  TGI: 35.2 µM
[12]
  TGI: 31.6 µM
[13]
  TGI: 35.7 µM
[14]
  TGI: 33.5 µM
[15]
  TGI: 51.1 µM
[16]
  TGI: 25.8 µM
[17]
  TGI: 63.6 µM
[18]
  TGI: > 100 µM
[19]
  TGI: 36.9 µM
[20]
  TGI: 49.4 µM
[21]
  TGI: 32.1 µM
[22]
  TGI: 35.6 µM
[23]
  TGI: 33.9 µM
[24]
  TGI: 53.6 µM
[25]
  TGI: 33.5 µM
[26]
  TGI: 33.9 µM
[27]
  TGI: 35 µM
[28]
  TGI: 58.5 µM
[29]
  TGI: 51.5 µM
[30]
  TGI: 33.9 µM
[31]
  TGI: 28.6 µM
[32]
  TGI: 29.9 µM
[33]
  TGI: 30.4 µM
[34]
  TGI: 53.9 µM
[35]
  TGI: 39.7 µM
[36]
  TGI: 33.6 µM
[37]
  TGI: 33.5 µM
[38]
  TGI: 51.7 µM
[39]
  TGI: 32.1 µM
[40]
  TGI: > 100 µM
[41]
  TGI: 32.8 µM
[42]
  TGI: 43.9 µM
[43]
  TGI: 49.8 µM
[44]
  TGI: > 100 µM
[45]
  TGI: 52.6 µM
[46]
  TGI: 84.1 µM
[47]
  TGI: 33.4 µM
[48]
  TGI: 36 µM
[49]
  TGI: 39 µM
[50]
  TGI: > 100 µM
[51]
  TGI: 33.3 µM
[52]
  TGI: 33.3 µM
[53]
  TGI: 36.7 µM
[54]
  TGI: 58.3 µM
[55]
  TGI: 19.7 µM
[56]
  TGI: 30.8 µM
[57]
  TGI: 29.5 µM
[58]
  TGI: 40.4 µM
[59]
  TGI: 31 µM

## C=C(CC[C@@H](C)[C@H]1CC[C@H]2[C@@H]3C[C@@H](O)[C@H]4C[C@@H](O)CC[C@]4(CO)[C@H]3CC[C@]12C)C(C)C
[1]
  TGI: 15.8 µM
[2]
  TGI: 10.4 µM
[3]
  TGI: 5.47 µM
[4]
  TGI: 7.91 µM
[5]
  TGI: 13.4 µM
[6]
  TGI: 11.1 µM
[7]
  TGI: 14.8 µM
[8]
  TGI: 13.3 µM
[9]
  TGI: 6.92 µM
[10]
  TGI: 12.4 µM
[11]
  TGI: 10.3 µM
[12]
  TGI: 15.6 µM
[13]
  TGI: 13.9 µM
[14]
  TGI: 15.9 µM
[15]
  TGI: 4.34 µM
[16]
  TGI: 15 µM
[17]
  TGI: 16.5 µM
[18]
  TGI: 14.9 µM
[19]
  TGI: 12 µM
[20]
  TGI: 10 µM
[21]
  TGI: 9.53 µM
[22]
  TGI: 13.3 µM
[23]
  TGI: 8.42 µM
[24]
  TGI: 11.1 µM
[25]
  TGI: 8.01 µM
[26]
  TGI: 15.5 µM
[27]
  TGI: 8.27 µM
[28]
  TGI: 8.47 µM
[29]
  TGI: 14.2 µM
[30]
  TGI: 20.6 µM
[31]
  TGI: 14.7 µM
[32]
  TGI: 6.33 µM
[33]
  TGI: 15.1 µM
[34]
  TGI: 12 µM
[35]
  TGI: 8.77 µM
[36]
  TGI: 17.1 µM
[37]
  TGI: 9 µM
[38]
  TGI: 10.8 µM
[39]
  TGI: 15.3 µM
[40]
  TGI: 10.5 µM
[41]
  TGI: 8.91 µM
[42]
  TGI: 18.4 µM
[43]
  TGI: 12.5 µM
[44]
  TGI: 11.6 µM
[45]
  TGI: 10.8 µM
[46]
  TGI: 12.6 µM
[47]
  TGI: 12.8 µM
[48]
  TGI: 12.6 µM
[49]
  TGI: 12.2 µM
[50]
  TGI: 9.77 µM
[51]
  TGI: 7.14 µM
[52]
  TGI: 16.3 µM
[53]
  TGI: 14.8 µM
[54]
  TGI: 11.8 µM
[55]
  TGI: 11.1 µM
[56]
  TGI: 13 µM
[57]
  TGI: 15 µM
[58]
  TGI: 12.6 µM
[59]
  TGI: 11.1 µM
